Results from the supplement of paper PMC10307832.

Legend:
Assay in all cases: relative viability (nuclei count vs DMSO), 5 days (fraction); higher = more cells survive
Kobe2602 + Crizotinib = compound: C1=CC(=CC=C1NC(=S)NNC2=C(C=C(C=C2[N+](=O)[O-])C(F)(F)F)[N+](=O)[O-])F [Kobe2602] + C[C@@H](Oc1cc(-c2cnn(C3CCNCC3)c2)cnc1N)c1c(Cl)ccc(F)c1Cl [Crizotinib] (partner 1 µM)
Outline: (§1)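 Relative viability equals treated-well nuclei counts divided by vehicle-well nuclei counts. Counts came from 4× images of lung cancer cell lines grown in 1536-well plates for 5 days after pin-tool dosing on the day after seeding. Dosing used one drug alone or a fixed anchor-drug dose plus five library-drug doses (not always all listed) in √10 steps, and values are medians of duplicate plates.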

Kobe2602 + Linsitinib = compound: C1=CC(=CC=C1NC(=S)NNC2=C(C=C(C=C2[N+](=O)[O-])C(F)(F)F)[N+](=O)[O-])F [Kobe2602] + C[C@]1(O)C[C@@H](c2nc(-c3ccc4ccc(-c5ccccc5)nc4c3)c3c(N)nccn32)C1 [Linsitinib] (partner 1 µM)
Outline: as §1

Kobe2602 + Decitabine = compound: C1=CC(=CC=C1NC(=S)NNC2=C(C=C(C=C2[N+](=O)[O-])C(F)(F)F)[N+](=O)[O-])F [Kobe2602] + Nc1ncn([C@H]2C[C@H](O)[C@@H](CO)O2)c(=O)n1 [Decitabine] (partner 2 µM)
Outline: as §1

Zosuquidar + Bortezomib = compound: O[C@@H](COc1cccc2ncccc12)CN1CCN([C@@H]2c3ccccc3[C@@H]3[C@H](c4ccccc42)C3(F)F)CC1 [Zosuquidar] + CC(C)C[C@H](NC(=O)[C@H](Cc1ccccc1)NC(=O)c1cnccn1)B(O)O [Bortezomib] (partner 0.002 µM)
Outline: as §1

Cell Line | relative viability (Kobe2602 + Crizotinib; first compound 0.2 µM) | relative viability (Kobe2602 + Crizotinib; first compound 0.6325 µM) | relative viability (Kobe2602 + Crizotinib; first compound 2 µM) | relative viability (Kobe2602 + Crizotinib; first compound 6.325 µM) | relative viability (Kobe2602 + Crizotinib; first compound 20 µM) | relative viability (Kobe2602 + Linsitinib; first compound 0.2 µM) | relative viability (Kobe2602 + Linsitinib; first compound 0.6325 µM) | relative viability (Kobe2602 + Linsitinib; first compound 2 µM) | relative viability (Kobe2602 + Linsitinib; first compound 6.325 µM) | relative viability (Kobe2602 + Linsitinib; first compound 20 µM) | relative viability (Kobe2602 + Decitabine; first compound 0.2 µM) | relative viability (Kobe2602 + Decitabine; first compound 0.6325 µM) | relative viability (Kobe2602 + Decitabine; first compound 6.325 µM) | relative viability (Kobe2602 + Decitabine; first compound 20 µM) | relative viability (Zosuquidar + Bortezomib; first compound 0.01 µM) | relative viability (Zosuquidar + Bortezomib; first compound 0.03162 µM) | relative viability (Zosuquidar + Bortezomib; first compound 0.3162 µM) | relative viability (Zosuquidar + Bortezomib; first compound 1 µM) | relative viability (Kobe2602 + Decitabine; first compound 2 µM) | relative viability (Zosuquidar + Bortezomib; first compound 0.1 µM)
LCLC-97TM1 | 0.405 | 0.336 | 0.242 | 0.372 | 0.282 | 0.221 | 0.179 | 0.159 | 0.196 | 0.202 | 0.234 | 0.229 | 0.242 | 0.28 | 0.433 | 0.538 | 0.844 | 0.464 | – | –
LCLC-103H | 1.04 | 1.02 | 1.07 | 1.02 | 1.18 | 1.05 | 1.1 | 1.1 | 1.09 | 0.984 | 0.744 | 0.703 | 0.778 | 0.718 | 1.02 | 1.03 | 1.23 | 0.926 | 0.79 | 0.836
LOU-NH91 | 0.736 | 0.763 | 0.745 | 0.707 | 0.77 | 0.997 | 0.983 | 1 | 0.922 | 0.965 | 0.794 | 0.895 | 0.809 | 0.826 | 0.567 | 0.52 | 0.503 | 0.507 | 0.801 | 0.484
LU99A | 0.557 | 0.601 | 0.571 | 0.607 | 0.641 | 0.538 | 0.53 | 0.471 | 0.585 | 0.631 | 0.913 | 1.01 | 0.955 | 0.859 | 1.09 | 1.14 | 1.34 | 1.37 | 0.746 | 1.22
LXF-289 | 0.789 | 0.826 | 0.826 | 0.792 | 0.791 | 0.944 | 0.985 | 0.941 | 0.952 | 0.919 | 0.387 | 0.432 | 0.381 | 0.378 | 0.993 | 1.01 | 0.99 | 0.976 | 0.386 | 1.01
NCI-H23 | 0.5 | 0.604 | 0.392 | 0.499 | 0.619 | 0.528 | 0.706 | 0.477 | 0.652 | 0.525 | 0.2 | 0.345 | 0.304 | 0.39 | 0.956 | 1.24 | 1.3 | 1.33 | 0.316 | 1.15
NCI-H322M | 0.81 | 0.95 | 0.995 | 0.893 | 0.867 | 0.88 | 1.01 | 0.883 | 1 | 0.921 | 0.707 | 0.72 | 0.741 | 0.718 | 1.27 | 1.27 | 1.17 | 1.12 | 0.693 | 0.827
NCI-H441 | 0.719 | 0.662 | 0.606 | 0.876 | 0.713 | 0.612 | 0.746 | 0.48 | 0.557 | 0.623 | 0.224 | 0.258 | 0.232 | 0.27 | 0.43 | 0.476 | – | 0.641 | 0.224 | 0.444
NCI-H460 | 0.855 | 0.905 | 0.922 | 0.893 | 0.729 | 0.826 | 0.768 | 0.709 | 0.894 | 0.725 | – | 0.486 | 0.472 | 0.454 | 1.01 | 1.09 | 1.07 | 1.1 | 0.525 | 1.14
NCI-H520 | 0.694 | 0.711 | 0.746 | 0.757 | 0.763 | 0.997 | 1.04 | 1.02 | 0.984 | 0.968 | 0.543 | 0.616 | 0.526 | 0.48 | 0.54 | 0.591 | 0.743 | 0.729 | 0.563 | 0.565
NCI-H596 | 0.723 | 1.03 | 0.944 | 1.21 | 1 | 1.15 | 1.19 | 1.09 | 1.06 | 0.986 | 1.03 | 1.03 | 1.12 | 1.23 | 0.985 | 1.09 | 1.02 | 1.01 | 1.07 | 0.718
NCI-H647 | 1.2 | 1.24 | 0.887 | 1.07 | 1.03 | 1.12 | 1.45 | 1.25 | 0.864 | 1.19 | 0.438 | 0.399 | 0.4 | 0.399 | 1.01 | 0.882 | 1.1 | 0.996 | 0.332 | 1.27
NCI-H650 | 0.683 | 0.692 | 0.854 | 0.849 | 0.636 | 0.758 | 1.03 | 0.912 | 0.897 | 0.954 | 0.313 | 0.304 | 0.289 | 0.376 | 0.858 | 0.863 | 1.01 | 0.919 | 0.32 | –
NCI-H661 | 0.933 | – | 0.971 | 1.06 | 1.1 | 0.53 | 0.559 | 0.629 | 0.539 | 0.581 | 0.564 | 0.598 | 0.561 | 0.612 | 0.875 | 0.702 | 1.12 | 0.949 | 0.589 | 0.628
NCI-H727 | 0.767 | 0.69 | 0.776 | 0.64 | 0.865 | 0.306 | 0.319 | 0.253 | 0.239 | 0.324 | 0.854 | 0.765 | – | 1.13 | 0.876 | 0.938 | 0.787 | 0.828 | 0.97 | 0.708
NCI-H838 | 0.777 | 0.964 | 0.759 | 0.909 | 0.83 | 0.91 | 1.12 | 0.88 | 0.992 | 1.07 | 0.474 | 0.478 | 0.472 | 0.527 | 0.824 | 0.605 | 0.813 | 0.884 | 0.46 | 0.749
